Experimental data from the Deep4Chem optical property database.

Experiment: photoluminescence quantum yield (fraction); solvent given as SMILES
[1] = in O=P(c1ccccc1)(c1ccccc1)c1ccccc1Oc1ccccc1P(=O)(c1ccccc1)c1ccccc1

In the case of CCn1c(-c2ccc(-c3cccc4ccccc34)cc2)c(-c2ccc3ccccc3c2)c(-c2ccc3ccccc3c2)c1-c1ccc(-c2cccc3ccccc23)cc1, the photoluminescence quantum yield (in CCOC(C)=O) is reported as 0.35.

For CC(C)(C)c1cc(-c2c3cccc4c5cccc6c(-c7cc(C(C)(C)C)cc(C(C)(C)C)c7)c7cccc8c9cccc2c9c(c34)c(c65)c78)cc(C(C)(C)C)c1, the photoluminescence quantum yield (in Cc1ccccc1) was 0.81.

F[B-]1(F)n2c(cc3c2-c2ccccc2CC3)C(c2ccc(I)cc2)=C2C=C3CCc4ccccc4C3=[N+]21 showed a photoluminescence quantum yield (in ClC(Cl)Cl) of 0.38.

In the case of CCOC(=O)C1=CN(c2ccccc2)C=C(C(=O)OCC)C1, the photoluminescence quantum yield (in C1CCOC1) is reported as 0.2 and the photoluminescence quantum yield (in CO) is reported as 0.16.

COc1ccc2c3c(c4ccc(OC)cc4c2c1)C(C)(C)c1ccc2ccccc2c1-3 showed a photoluminescence quantum yield (in C1CCCCC1) of 0.26.

Work on COc1ccc(C#Cc2ccc3nc4ccc(C#Cc5ccc(OC)cc5)cn4c(=O)c3c2)cc1 yielded a photoluminescence quantum yield (in ClCCl) of 0.52.

F[B-]1(F)Oc2ccccc2-c2cc(-n3c4ccccc4c4ccccc43)cc[n+]21 showed a photoluminescence quantum yield [1] of 0.99.

Compound c1ccc(CSc2c3ccc(=[N+]4CCCCC4)cc-3oc3cc(N4CCCCC4)ccc23)cc1 has a photoluminescence quantum yield (in ClCCl) of 0.79.

Fc1nc(F)c(F)c(C#Cc2cc3c(cc2C#Cc2c(F)c(F)nc(F)c2F)OC2(CCCCC2)O3)c1F gave a photoluminescence quantum yield (in CC#N) of 0.9.

With O=C1c2ccc3c4c(Oc5ccccc5)cc5c6c(ccc(c7c(Oc8ccccc8)cc(c2c37)C(=O)N1c1ccc(O)cc1)c64)C(=O)N(c1ccc(O)cc1)C5=O the photoluminescence quantum yield (in C1CCOC1) was 0.3, the photoluminescence quantum yield (in CN1CCCC1=O) was 0.2 and the photoluminescence quantum yield (in CN(C)C=O) was 0.01.

CCCCc1ccc(C#Cc2ccc3nc4ccc(C#Cc5ccc(CCCC)cc5)cn4c(=O)c3c2)cc1 showed a photoluminescence quantum yield (in ClCCl) of 0.48.

For C#CCn1c2ccccc2c2cc(/C=C/c3cc(C)c4n3[B-](F)(F)[N+]3=C(C)C=C(C)C3=C4c3ccc(I)cc3)ccc21, the photoluminescence quantum yield (in CC#N) was 0.77, the photoluminescence quantum yield (in CS(C)=O) was 0.72 and the photoluminescence quantum yield (in ClC(Cl)Cl) was 0.66.

Compound Cn1c2ccc(S(=O)(=O)O)cc2c(=O)c2cc(S(=O)(=O)O)ccc21 has a photoluminescence quantum yield (in CS(C)=O) of 0.64 and a photoluminescence quantum yield (in O) of 0.76.

With COc1ccc(/C=C/c2nc(/C=C/c3ccc(N(C)C)cc3)cc(/C=C/c3ccc(N(c4ccccc4)c4ccccc4)cc3)n2)cc1 the photoluminescence quantum yield (in ClCCl) was 0.68.

With CC(C)(C)c1cc2c(c(C(C)(C)C)c1)O[B-]1(c3ccc([B-]45OC(c6ccccc6)=N[N+]4=Cc4cc(C(C)(C)C)cc(C(C)(C)C)c4O5)cc3)OC(c3ccccc3)=N[N+]1=C2 (configuration not stated) the photoluminescence quantum yield (in C1CCOC1) was 0.001.

Work on COc1ccc(N(c2ccccc2)c2ccc3ccc4c(N(c5ccccc5)c5ccc(OC)cc5)ccc5ccc2c3c54)cc1 yielded a photoluminescence quantum yield (in ClCCl) of 0.46.

Work on F[B-]1(F)OC(c2ccccc2)=CC(c2ccccc2)=[O+]1 yielded a photoluminescence quantum yield (in CC#N) of 0.8 and a photoluminescence quantum yield (in ClC(Cl)(Cl)Cl) of 0.15.

N#Cc1ccc(N)c2nonc12 gave a photoluminescence quantum yield (in C1COCCO1) of 0.218, a photoluminescence quantum yield (in CC#N) of 0.105 and a photoluminescence quantum yield (in CCCCCC) of 0.329. It also gave a photoluminescence quantum yield (in CCO) of 0.059, a photoluminescence quantum yield (in Cc1ccccc1) of 0.304 and a photoluminescence quantum yield (in ClCCl) of 0.195. For the same compound, the photoluminescence quantum yield (in O) was 0.002.

CCCCCCCc1cc2c(o1)=CC1=C3c4cc5oc(CCCCCCC)cc5n4[B-](F)(F)[n+]4nnn(c43)[B-](F)(F)[N+]=21 gave a photoluminescence quantum yield (in C1CCOC1) of 0.34 and a photoluminescence quantum yield (in ClCCl) of 0.39.

Work on COC(=O)C[C@H](Cc1c[nH]c2ccccc12)NC(=O)[C@H](CC(=O)N[C@@H](CC1=CCc2ccccc21)C(=O)OC)NC(=O)[C@H](Cc1c[nH]c2ccccc12)NC(=O)OC(C)(C)C yielded a photoluminescence quantum yield (in CC#N) of 0.26, a photoluminescence quantum yield (in CCOC(C)=O) of 0.22 and a photoluminescence quantum yield (in CO) of 0.1.

CCCCCn1c2ccc(S(=O)(=O)O)cc2c(=O)c2cc(S(=O)(=O)O)ccc21 gave a photoluminescence quantum yield (in CS(C)=O) of 0.7 and a photoluminescence quantum yield (in O) of 0.92.

With CC(=O)c1ccc(-c2cnc3nn4ccccc4c3n2)cc1 the photoluminescence quantum yield (in C1CCOC1) was 0.5.

With CC(C)(C)c1cc(-c2ccc(-c3cc(C(C)(C)C)cc(C(C)(C)C)c3)cc2)cc(C(C)(C)C)c1 the photoluminescence quantum yield (in C1COCCO1) was 0.58.

Compound COc1ccc2cc3c(C)cc(=O)oc3cc2c1 has a photoluminescence quantum yield (in CC#N) of 0.0071, a photoluminescence quantum yield (in CCCCCC) of 0 and a photoluminescence quantum yield (in CCO) of 0.13. For the same compound, the photoluminescence quantum yield (in CCOC(C)=O) was 0.0006, the photoluminescence quantum yield (in CO) was 0.21 and the photoluminescence quantum yield (in ClC(Cl)Cl) was 0.011. For the same compound, the photoluminescence quantum yield (in OCC(F)(F)F) was 0.33.

Compound Cn1nc(-c2ccc(C#N)cc2)cc1-c1ccccc1 has a photoluminescence quantum yield (in ClCCl) of 0.7.

In the case of COc1nc(Nc2ccc3cc4ccccc4cc3c2)nc(OC)n1, the photoluminescence quantum yield (in C1COCCO1) is reported as 0.45, the photoluminescence quantum yield (in CC#N) is reported as 0.37 and the photoluminescence quantum yield (in CCCCOCCCC) is reported as 0.39. For the same compound, the photoluminescence quantum yield (in CCOC(C)=O) was 0.26.

For Oc1cccc(O)c1-c1c2ccc(=[N+]3CCCCC3)cc-2oc2cc(N3CCCCC3)ccc12, the photoluminescence quantum yield (in CCO) was 0.26.

Compound CC(C)[Si](C#Cc1c2nsnc2c(C#C[Si](C(C)C)(C(C)C)C(C)C)c2nc3c(ccc4cc5ccccc5cc43)nc12)(C(C)C)C(C)C has a photoluminescence quantum yield (in CCCCCC) of 0.13.

In the case of C[n+]1ccc(-c2cc[n+](C)cc2)cc1, the photoluminescence quantum yield (in CC#N) is reported as 0.02.

Cc1ccccc1-c1c2ccc(=[N+]3CCN(C(=O)OC(C)(C)C)CC3)cc-2oc2cc(N3CCN(C(=O)OC(C)(C)C)CC3)ccc12 showed a photoluminescence quantum yield (in CCO) of 0.19 and a photoluminescence quantum yield (in ClCCl) of 0.47.

Compound COc1ccc(-c2cc3c(ccc4sc5ccc6sc(-c7ccc(C#N)cc7)cc6c5c43)s2)cc1 has a photoluminescence quantum yield (in ClCCl) of 0.09.

In the case of F[B-]1(F)n2c(cc3ccc4ccccc4c32)C(c2ccc(I)cc2)=C2C=C3CCc4ccccc4C3=[N+]21, the photoluminescence quantum yield (in ClC(Cl)Cl) is reported as 0.17.

CC(C)[Si](C#Cc1ccc(C#C[Si](C(C)C)(C(C)C)C(C)C)c2nc3c(ccc4ccccc43)nc12)(C(C)C)C(C)C showed a photoluminescence quantum yield (in CCCCCC) of 0.05.

CN(C)c1ccc(/C=C/c2ccccc2)cc1 gave a photoluminescence quantum yield (in CC#N) of 0.04 and a photoluminescence quantum yield (in CCCCCC) of 0.03.

For c1ccc(-c2nc(-c3ccccc3)c(-c3ccccc3)[nH]2)cc1, the photoluminescence quantum yield (in CC#N) was 0.27 and the photoluminescence quantum yield (in CO) was 0.27.

Compound Cc1c(COC(=O)c2ccc(I)cc2)n2c(OCC(=O)c3ccc(I)cc3)c(C)c(=O)n2c1=O has a photoluminescence quantum yield (in CCO) of 0.842.

For CCCCCC(=O)c1ccc2c3c(sc2c1)-c1ccccc1P3(=O)c1ccccc1 (configuration not stated), the photoluminescence quantum yield (in ClCCl) was 0.15.

Cc1ccccc1/C(C#N)=C/c1ccc(N(C)C)cc1 gave a photoluminescence quantum yield (in C1CCOC1) of 0.011, a photoluminescence quantum yield (in C1COCCO1) of 0.01 and a photoluminescence quantum yield (in CC#N) of 0.014. The photoluminescence quantum yield (in CCCCCC) was 0.012, the photoluminescence quantum yield (in CCCCCCC) was 0.008 and the photoluminescence quantum yield (in CCCCCO) was 0.01. For the same compound, the photoluminescence quantum yield (in CCCCO) was 0.006, the photoluminescence quantum yield (in CCCO) was 0.008 and the photoluminescence quantum yield (in CCO) was 0.006. For the same compound, the photoluminescence quantum yield (in CCOC(C)=O) was 0.007, the photoluminescence quantum yield (in CN(C)C=O) was 0.015 and the photoluminescence quantum yield (in CO) was 0.005. It also gave a photoluminescence quantum yield (in CS(C)=O) of 0.011, a photoluminescence quantum yield (in Cc1ccccc1) of 0.021 and a photoluminescence quantum yield (in ClC(Cl)Cl) of 0.009.

Compound CC(C)(C)c1ccc2c(c1)c1cc(C(C)(C)C)ccc1n2-c1ccc(N(c2ccc(-c3ccc(N(c4ccc(-n5c6ccc(C(C)(C)C)cc6c6cc(C(C)(C)C)ccc65)cc4)c4ccc(-n5c6ccc(C(C)(C)C)cc6c6cc(C(C)(C)C)ccc65)cc4)cc3)cc2)c2ccc(-n3c4ccc(C(C)(C)C)cc4c4cc(C(C)(C)C)ccc43)cc2)cc1 has a photoluminescence quantum yield (in ClCCl) of 0.55.

Work on CC1(C)C(/C=C/C2=C(Oc3ccc(CCN=C=S)cc3)C(=C/C=C3/N(CCCS(=O)(=O)[O-])c4ccccc4C3(C)C)/CCC2)=[N+](CCCS(=O)(=O)[O-])c2ccccc21 yielded a photoluminescence quantum yield (in CO) of 0.07.

Work on CC1(C)c2ccccc2N(c2ccccc2)c2ccc(S(=O)(=O)c3ccc4c(c3)C(C)(C)c3ccccc3N4c3ccccc3)cc21 yielded a photoluminescence quantum yield [1] of 0.5.

Compound CN(C)c1ccc(-c2nc3cccnc3[nH]2)cc1 has a photoluminescence quantum yield (in C1CCCCC1) of 0.72 and a photoluminescence quantum yield (in CC#N) of 0.76.

With Cc1ccc(-c2cc(-c3ccc(N(C)C)cc3)c3c(N)nc(N4CCCC4)c(C#N)c3n2)cc1 the photoluminescence quantum yield (in CC#N) was 0.095 and the photoluminescence quantum yield (in c1ccccc1) was 0.083.

For CC(C)(C)c1ccc(C(C)(C)C)c(N2C(=O)c3cccc4c(-c5ccc(-c6ccc([N+](=O)[O-])cc6)s5)ccc(c34)C2=O)c1, the photoluminescence quantum yield (in CO) was 0.03, the photoluminescence quantum yield (in CS(C)=O) was 0.17 and the photoluminescence quantum yield (in Cc1ccccc1) was 0.07.

With COc1cc2cc(OC)c(C#Cc3ccc([N+](=O)[O-])cc3)cc2cc1C#Cc1ccc([N+](=O)[O-])cc1 the photoluminescence quantum yield (in C1CCOC1) was 0.009, the photoluminescence quantum yield (in ClC(Cl)Cl) was 0.053 and the photoluminescence quantum yield (in ClCCl) was 0.019.

With CC1(C)c2ccccc2N(c2ccc(-c3nc(-c4ccccn4)n(-c4ccc(N5c6ccccc6C(C)(C)c6ccccc65)cc4)n3)cc2)c2ccccc21 the photoluminescence quantum yield (in ClCCl) was 0.0876.

c1ccc(-c2nc(-c3ccccc3)nc(-c3ccc(N4c5ccccc5C5(c6ccccc6-c6ccccc65)c5ccccc54)cc3)n2)cc1 gave a photoluminescence quantum yield [1] of 0.801.

Cc1nc(-c2ccc(N3c4ccccc4C(c4ccccc4)(c4ccccc4)c4ccccc43)cc2)cc(-c2ccc(N3c4ccccc4C(c4ccccc4)(c4ccccc4)c4ccccc43)cc2)n1 gave a photoluminescence quantum yield (in Cc1ccccc1) of 0.54 and a photoluminescence quantum yield (in O=P(c1ccccc1)(c1ccccc1)c1ccc2oc3ccc(P(=O)(c4ccccc4)c4ccccc4)cc3c2c1) of 0.92.

In the case of CN(C)c1ccc(C2=Nc3scc(-c4ccc(N(C)C)cc4)[n+]3[B-](F)(F)O2)cc1, the photoluminescence quantum yield (in C1CCOC1) is reported as 0.01, the photoluminescence quantum yield (in CC#N) is reported as 0 and the photoluminescence quantum yield (in Cc1ccccc1) is reported as 0.66. For the same compound, the photoluminescence quantum yield (in ClCCl) was 0.04.

c1ccc2cc3c(cc2c1)-c1cccc2c1c-3cc1ccccc12 gave a photoluminescence quantum yield (in CCCCCCC) of 0.73.

Work on CCn1c2ccccc2c2cc(-c3cc(-c4ccc5c(c4)c4ccccc4n5CC)nc(N4CCCCC4)n3)ccc21 yielded a photoluminescence quantum yield (in C1CCOC1) of 0.15, a photoluminescence quantum yield (in CCOC(C)=O) of 0.14 and a photoluminescence quantum yield (in CN(C)C=O) of 0.17. The photoluminescence quantum yield (in Cc1ccccc1) was 0.16 and the photoluminescence quantum yield (in ClCCl) was 0.15.

With O=S1(=O)C2=C(c3ccccc31)C1(c3ccccc32)c2ccccc2-c2sc3ccccc3c21 (configuration not stated) the photoluminescence quantum yield (in ClCCl) was 0.01.

For N#Cc1c(-n2c3ccccc3c3ccccc32)c(-n2c3ccc(-c4ccccc4)cc3c3cc(-c4ccccc4)ccc32)c(-n2c3ccccc3c3ccccc32)c(-n2c3ccc(-c4ccccc4)cc3c3cc(-c4ccccc4)ccc32)c1-n1c2ccccc2c2ccccc21, the photoluminescence quantum yield (in Cc1ccccc1) was 0.81 and the photoluminescence quantum yield (in c1cc(-c2cccc(-n3c4ccccc4c4ccccc43)c2)cc(-n2c3ccccc3c3ccccc32)c1) was 0.8.

CC(=O)c1ccc(-c2ccc3c(c2)C(=O)c2cc(-c4ccc(C(C)=O)cc4)ccc2-3)cc1 showed a photoluminescence quantum yield (in C1CCOC1) of 0.03.
